Patent US20250051347A1, “BIFUNCTIONAL CHIMERIC HETEROCYCLIC COMPOUND AND USE THEREOF AS ANDROGEN RECEPTOR DEGRADER” (Hinova Pharmaceuticals, Inc., priority 2021, published 2025)
Like-named read-outs stand apart in the source and are kept apart here.

Experiments:
[1] = target: T1, androgen receptor (AR) splicing variant AR-v7 (Homo sapiens, UniProt P10275); experiment: Degradation activity on androgen receptor splicing variant AR-v7 in 22RV1 cells (ELISA); format: cell-based; conditions: AR-v7 degradation in 22RV1 cells, 48 h, class symbols
T1 construct: The degradation activity of compounds on AR-v7 in 22RV1 cells; host or cells: 22RV1 cells
T1 sequence (P10275 1-644 isoform P10275-3): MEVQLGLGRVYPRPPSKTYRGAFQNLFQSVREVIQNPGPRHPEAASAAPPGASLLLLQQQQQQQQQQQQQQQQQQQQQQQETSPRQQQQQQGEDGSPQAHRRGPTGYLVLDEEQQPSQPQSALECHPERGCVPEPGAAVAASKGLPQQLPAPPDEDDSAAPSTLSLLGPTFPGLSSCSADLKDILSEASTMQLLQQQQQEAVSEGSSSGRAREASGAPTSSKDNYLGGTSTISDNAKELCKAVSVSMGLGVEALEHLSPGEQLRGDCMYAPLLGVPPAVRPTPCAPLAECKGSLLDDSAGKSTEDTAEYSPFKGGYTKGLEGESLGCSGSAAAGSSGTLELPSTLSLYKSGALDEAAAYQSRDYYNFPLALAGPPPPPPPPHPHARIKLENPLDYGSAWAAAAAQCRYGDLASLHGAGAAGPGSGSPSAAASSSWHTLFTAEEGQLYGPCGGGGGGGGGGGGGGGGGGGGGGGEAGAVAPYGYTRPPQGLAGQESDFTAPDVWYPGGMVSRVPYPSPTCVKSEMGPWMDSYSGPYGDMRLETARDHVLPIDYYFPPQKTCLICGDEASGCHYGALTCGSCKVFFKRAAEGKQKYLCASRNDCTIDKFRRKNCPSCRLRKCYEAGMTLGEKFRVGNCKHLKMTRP

[2] = Homo sapiens, 22Rv1, 144 h, read-out: 22RV1 IC50 (nM), 22RV1 cells, 6 days culture, CCK-8, OD 450 nm
[3] = Homo sapiens, 22Rv1, 144 h, read-out: 22RV1 IC50 (nM)

CC(C)(c1ccc(NC2CC(Nc3ccc4c(c3)C(=O)N(C3CCC(=O)NC3=O)C4=O)C2)cc1)c1ccc(OCc2ccnc(N3CC4(COC4)C3)n2)cc1 (stereo not drawn) [Example 494, 5-((3-((4-(2-(4-((2-(2-oxa-6-azaspiro[3.3]heptan-6-yl)pyrimidin-4-yl)methoxy)phenyl)propan-2-yl)phenyl)amino)cyclobutyl)amino)-2-(2,6-dioxopiperidin-3-yl)isoindolin-1,3-dione]
DC50 [1]: < 10 nM
IC50 (22RV1 cells; [2]): 7 nM

CC(CNc1ccc2c(c1)C(=O)N(C1CCC(=O)NC1=O)C2=O)COc1ccc(C(C)(C)c2ccc(OCc3ccnc(N4CC5(COC5)C4)n3)cc2)cc1 (stereo not drawn) [Example 496, 5-((3-(4-(2-(4-((2-(2-oxa-6-azaspiro[3.3]heptan-6-yl)pyrimidin-4-yl)methoxy)phenyl)propan-2-yl)phenoxy)-2-methylpropyl)amino)-2-(2,6-dioxopiperidin-3-yl)isoindolin-1,3-dione]
DC50 [1]: < 10 nM
IC50 (22RV1 cells; [3]): 61 nM

CC(C)(c1ccc(OCc2ccnc(N3CC4(COC4)C3)n2)cc1)c1ccc(C(=O)NC2CN(c3ccc4c(c3)C(=O)N(C3CCC(=O)NC3=O)C4=O)C2)cc1 (stereo not drawn) [Example 506, 4-(2-(4-((2-(2-oxa-6-azaspiro[3.3]heptan-6-yl)pyrimidin-4-yl)methoxy)phenyl)propan-2-yl)-N-(1-(2-(2,6-dioxopiperidin-3-yl)-1,3-dioxoisoindolin-5-yl)azetidin-3-yl)benzamide]
DC50 [1]: < 10 nM
IC50 (22RV1 cells; [2]): 4 nM

Cc1nc(-c2ncc(F)cc2Oc2ccc(C(C)(C)c3ccc(O[C@H]4C[C@H](Nc5ccc6c(c5)C(=O)N(C5CCC(=O)NC5=O)C6=O)C4)cc3)cc2)no1 (stereo partly drawn) [Example 512]
DC50 [1]: < 10 nM
IC50 (22RV1 cells; [2]): 8 nM

CC(C)(c1ccc(Oc2nnc(N3CCOCC3)s2)cc1)c1ccc(O[C@H]2C[C@H](Nc3ccc4c(c3)C(=O)N(C3CCC(=O)NC3=O)C4=O)C2)cc1 (stereo partly drawn) [Example 513]
DC50 [1]: < 10 nM
IC50 (22RV1 cells; [2]): 12 nM

CC(C)(c1ccc(Oc2cc(F)cnc2-n2ccnn2)cc1)c1ccc(O[C@H]2C[C@H](Nc3ccc4c(c3)C(=O)N(C3CCC(=O)NC3=O)C4=O)C2)cc1 (stereo partly drawn) [Example 517]
DC50 [1]: < 10 nM
IC50 (22RV1 cells; read-out: 22RV1 IC50, 22RV1 cells, 6 days culture, CCK-8, OD 450 nm): 16 nM

CC(c1ccc(Oc2cnc(-n3nccn3)nc2)cc1)c1ccc(O[C@H]2C[C@H](Nc3ccc4c(c3)C(=O)N(C3CCC(=O)NC3=O)C4=O)C2)cc1 (stereo partly drawn) [Example 518]
DC50 [1]: < 10 nM
IC50 (22RV1 cells; [2]): 13 nM

CC(O)c1ccc(Oc2ccc(C(C)(C)c3ccc(O[C@H]4C[C@@H](Nc5ccc6c(c5)C(=O)N(C5CCC(=O)NC5=O)C6=O)C4)cc3)cc2)nn1 (stereo partly drawn) [Example 522]
DC50 [1]: 11 to 100 nM
IC50 (22RV1 cells; [2]): 7 nM

CC(=O)c1ccc(Oc2ccc(C(C)(C)c3ccc(O[C@H]4C[C@@H](Nc5ccc6c(c5)C(=O)N(C5CCC(=O)NC5=O)C6=O)C4)cc3)cc2)nn1 (stereo partly drawn) [Example 523]
DC50 [1]: < 10 nM
IC50 (22RV1 cells; [2]): 6 nM

CC(=O)c1ccc(Oc2ccc(C(C)(C)c3ccc(O[C@H]4C[C@@H](Nc5ccc6c(c5)C(=O)N(C5CCC(=O)NC5=O)C6=O)C4)cc3)cc2)cn1 (stereo partly drawn) [Example 525]
DC50 [1]: 11 to 100 nM
IC50 (22RV1 cells; [2]): 8 nM

CCC(CC)(c1ccc(Oc2ccc(-c3noc(C)n3)nn2)cc1)c1ccc(O[C@H]2C[C@@H](Nc3ccc4c(c3)C(=O)N(C3CCC(=O)NC3=O)C4=O)C2)cc1 (stereo partly drawn) [Example 526]
DC50 [1]: < 10 nM
IC50 (22RV1 cells; [3]): 5 nM

CCC(CC)(c1ccc(Oc2ccc(-c3noc(C)n3)nn2)cc1)c1ccc(O[C@H]2C[C@H](Nc3ccc4c(c3)C(=O)N(C3CCC(=O)NC3=O)C4=O)C2)cc1 (stereo partly drawn) [Example 527]
DC50 [1]: < 10 nM
IC50 (22RV1 cells; [2]): 3 nM

CC(=O)c1ncc(Oc2ccc(C3(c4ccc(O[C@H]5C[C@H](Nc6ccc7c(c6)C(=O)N(C6CCC(=O)NC6=O)C7=O)C5)cc4)CCCCC3)cc2)cn1 (stereo partly drawn) [Example 529]
DC50 [1]: < 10 nM
IC50 (22RV1 cells; [2]): 2 nM

CC(C)(c1ccc(OCc2cnc(N3CC4(COC4)C3)nc2)cc1)c1ccc(O[C@H]2C[C@H](Nc3ccc4c(c3)C(=O)N(C3CCC(=O)NC3=O)C4=O)C2)cc1 (stereo partly drawn) [Example 535]
DC50 [1]: 11 to 100 nM
IC50 (22RV1 cells; [2]): 35 nM

Cc1cncc(Oc2ccc(C(C)(C)c3ccc(O[C@H]4C[C@H](Nc5ccc6c(c5)C(=O)N(C5CCC(=O)NC5=O)C6=O)C4)cc3)cc2)n1 (stereo partly drawn) [Example 536, 2-(2,6-dioxopiperidin-3-yl)-5-(((1r,3r)-3-(4-(4-((6-methylpyrazin-2-yl)oxy)phenyl)propan-2-yl)phenoxy)amino)isoindolin-1,3-dione]
DC50 [1]: < 10 nM
IC50 (22RV1 cells; [2]): 5 nM

CC(C)(c1ccc(OCc2cncc(N3CC4(COC4)C3)n2)cc1)c1ccc(O[C@H]2C[C@H](Nc3ccc4c(c3)C(=O)N(C3CCC(=O)NC3=O)C4=O)C2)cc1 (stereo partly drawn) [Example 539]
DC50 [1]: < 10 nM
IC50 (22RV1 cells; [2]): 8 nM

CC(C)(c1ccc(Oc2cccnc2)cc1)c1ccc(O[C@H]2C[C@H](Nc3ccc4c(c3)C(=O)N(C3CCC(=O)NC3=O)C4=O)C2)cc1 (stereo partly drawn) [Example 547]
DC50 [1]: < 10 nM
IC50 (22RV1 cells; [2]): 9 nM

CC(C)(O)c1ncc(Oc2ccc(C(C)(C)c3ccc(O[C@H]4C[C@H](Nc5ccc6c(c5)C(=O)N(C5CCC(=O)NC5=O)C6=O)C4)cc3)cc2)cn1 (stereo partly drawn) [Example 548]
DC50 [1]: < 10 nM
IC50 (22RV1 cells; [2]): 8 nM

CC(C)(c1ccc(Oc2cnc(CO)nc2)cc1)c1ccc(O[C@H]2C[C@H](Nc3ccc4c(c3)C(=O)N(C3CCC(=O)NC3=O)C4=O)C2)cc1 (stereo partly drawn) [Example 549]
DC50 [1]: < 10 nM
IC50 (22RV1 cells; [2]): 7 nM

CNc1cnc(Oc2ccc(C(C)(C)c3ccc(O[C@H]4C[C@H](Nc5ccc6c(c5)C(=O)N(C5CCC(=O)NC5=O)C6=O)C4)cc3)cc2)cn1 (stereo partly drawn) [Example 551]
DC50 [1]: 11 to 100 nM
IC50 (22RV1 cells; [2]): 12 nM

CC(C)(c1ccc(OCc2ccnc(N3CC4(COC4)C3)n2)cc1)c1ccc(OCC2(Nc3ccc4c(c3)C(=O)N(C3CCC(=O)NC3=O)C4=O)CC2)cc1 (stereo not drawn) [Example 564, 5-((1-((4-(2-(4-((2-(2-oxa-6-azaspiro[3.3]heptan-6-yl)pyrimidin-4-yl)methoxy)phenyl)propan-2-yl)phenoxy)methyl)cyclopropyl)amino)-2-(2,6-dioxopiperidin-3-yl)isoindolin-1,3-dione]
DC50 [1]: 11 to 100 nM
IC50 (22RV1 cells; [2]): 40 nM

CC(C)(c1ccc(Oc2cc(N3CC4(COC4)C3)ncn2)cc1)c1ccc(O[C@H]2C[C@@H](Nc3ccc4c(c3)C(=O)N(C3CCC(=O)NC3=O)C4=O)C2)cc1 (stereo partly drawn) [Example 571]
DC50 [1]: < 10 nM
IC50 (22RV1 cells; [2]): 5 nM

CC(C)(c1ccc(Oc2ncnc(N3CC4(COC4)C3)c2F)cc1)c1ccc(O[C@H]2C[C@H](Nc3ccc4c(c3)C(=O)N(C3CCC(=O)NC3=O)C4=O)C2)cc1 (stereo partly drawn) [Example 572]
DC50 [1]: < 10 nM
IC50 (22RV1 cells; [2]): 16 nM

CC(C)(c1ccc(Oc2ncnc(N3CC4(COC4)C3)c2F)cc1)c1ccc(O[C@H]2C[C@@H](Nc3ccc4c(c3)C(=O)N(C3CCC(=O)NC3=O)C4=O)C2)cc1 (stereo partly drawn) [Example 574]
DC50 [1]: < 10 nM
IC50 (22RV1 cells; [2]): 5 nM

CC(C)(c1ccc(Oc2cc(-n3nccn3)ncn2)cc1)c1ccc(O[C@H]2C[C@H](Nc3ccc4c(c3)C(=O)N(C3CCC(=O)NC3=O)C4=O)C2)cc1 (stereo partly drawn) [Example 578]
DC50 [1]: < 10 nM
IC50 (22RV1 cells; [2]): 8 nM

CC(C)(c1ccc(Oc2cncc(-n3nccn3)n2)cc1)c1ccc(O[C@H]2C[C@H](Nc3ccc4c(c3)C(=O)N(C3CCC(=O)NC3=O)C4=O)C2)cc1 (stereo partly drawn) [Example 579]
DC50 [1]: < 10 nM
IC50 (22RV1 cells; [2]): 7 nM

CC(C)(c1ccc(Oc2cncc(-n3ccnn3)n2)cc1)c1ccc(O[C@H]2C[C@H](Nc3ccc4c(c3)C(=O)N(C3CCC(=O)NC3=O)C4=O)C2)cc1 (stereo partly drawn) [Example 580]
DC50 [1]: < 10 nM
IC50 (22RV1 cells; [2]): 14 nM

Cc1nc(-c2ccc(Oc3ccc(C(C)(C)c4ccc(O[C@H]5C[C@H](Nc6ccc7c(c6)C(=O)N(C6CCC(=O)NC6=O)C7=O)C5)cc4)cc3)cn2)no1 (stereo partly drawn) [Example 581]
DC50 [1]: < 10 nM
IC50 (22RV1 cells; [2]): 10 nM

CC(C)(c1ccc(Oc2cnc(-n3nccn3)cn2)cc1)c1ccc(O[C@H]2C[C@H](Nc3ccc4c(c3)C(=O)N(C3CCC(=O)NC3=O)C4=O)C2)cc1 (stereo partly drawn) [Example 583]
DC50 [1]: 11 to 100 nM
IC50 (22RV1 cells; [2]): 10 nM

Cc1nnc(-c2cnc(Oc3ccc(C(C)(C)c4ccc(O[C@H]5C[C@H](Nc6ccc7c(c6)C(=O)N(C6CCC(=O)NC6=O)C7=O)C5)cc4)cc3)cn2)o1 (stereo partly drawn) [Example 589]
DC50 [1]: < 10 nM
IC50 (22RV1 cells; [2]): 7 nM
